In US12263166B2, “Methods of treating cancers having a BRCA1 and/or BRCA2 mutation(s)” (Dana-Farber Cancer Institute, Inc., priority 2017, dated 2025):

Experiments:
[1] = test system: UWB1.289 (BRCA1-mutant ovarian cancer cell line); assay: Colony formation (sensitivity) assay in UWB1.289; type: cell-based; settings: BRCA1-mutant UWB1.289, compared to UWB1.289+BRCA1
Description: (§1) Cells were transfected with siRNA or plasmid 18-24 h before being plated for colony formation assays. Cells were counted and plated in triplicates in 6-well plates. For treatment with ML323, plated cells were allowed to adhere overnight before treatment with ML323 the next day. At the end of the experiment, cells were fixed with methanol for 10 min at −20° C. then stained with crystal violet. Quantification of cell growth area was performed with ImageJ.

[2] = test system: BRCA1 deficient MDA-MB-436 cells; assay: Replication combing (fiber) assay in MDA-MB-436 after hydroxyurea; type: cell-based; settings: 10 μM ML323 for 24 h; effect not increased with USP1 silencing
Description: FIG. 20B. Schematic of the experimental design for the fiber assay, graphical quantification of fiber assay measuring replication fork stability in MDA-MB-436 cells following treatment with either siCtrl or siUSP1, untreated or treated with 10 μM of ML323 for 24 h.
Replication combing assay was performed using the FiberComb machine (Genomic Vision, Bagneux, France). Br iefly, cells were treated with CldU, IdU then HU, with 3 PBS washes between each treatment. Cells were then trypsinized, counted and embedded in low melting point agarose plugs, then treated with proteinase k overnight. Agarose plugs were then washed and digested with agarase. Agarase-treated samples were then poured into FiberComb wells and combed onto silanized coverslips. Coverslips were probed with rat anti-BrdU antibody (clone BU1/75 (ICR1) specific to CldU, Life Technologies, Woburn, MA, #MA1-82088) and mouse anti-BrdU Antibody (specific to IdU, BD Biosciences, Woburn, MA, #347580) and visualized by fluorescence microscopy. Pictures were taken of at least 100 fibers per condition. Fibers were measured with ImageJ and graphed.

[3] = target: T1, wild-type, full-length USP1 (Homo sapiens, UniProt O94782); assay: Ub-CHOP2 deubiquitination assay, WT-USP1; type: biochemical
T1 construct: purchased Boston Biochem / R&D systems E564
T1 sequence (O94782 1-785): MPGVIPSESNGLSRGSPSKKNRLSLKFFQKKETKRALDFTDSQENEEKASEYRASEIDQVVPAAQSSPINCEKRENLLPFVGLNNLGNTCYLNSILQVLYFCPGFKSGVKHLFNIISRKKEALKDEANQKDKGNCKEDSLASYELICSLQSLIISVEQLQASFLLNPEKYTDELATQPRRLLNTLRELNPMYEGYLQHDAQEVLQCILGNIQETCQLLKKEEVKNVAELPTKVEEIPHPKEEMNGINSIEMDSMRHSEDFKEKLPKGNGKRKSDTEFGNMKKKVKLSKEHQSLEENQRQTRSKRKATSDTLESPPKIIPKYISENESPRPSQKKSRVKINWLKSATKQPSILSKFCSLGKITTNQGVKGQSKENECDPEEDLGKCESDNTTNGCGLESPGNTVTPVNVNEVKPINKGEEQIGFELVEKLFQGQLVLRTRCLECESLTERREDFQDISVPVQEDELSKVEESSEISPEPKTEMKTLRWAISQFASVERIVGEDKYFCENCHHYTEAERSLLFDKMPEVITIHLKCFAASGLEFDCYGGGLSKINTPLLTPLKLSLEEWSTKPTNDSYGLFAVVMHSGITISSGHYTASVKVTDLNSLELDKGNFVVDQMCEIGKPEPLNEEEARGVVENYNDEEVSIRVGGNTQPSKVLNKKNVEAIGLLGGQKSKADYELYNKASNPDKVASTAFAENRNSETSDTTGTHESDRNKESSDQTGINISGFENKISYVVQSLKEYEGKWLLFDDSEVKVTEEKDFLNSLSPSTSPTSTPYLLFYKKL
Description: (§2) FIG. 11B. Ub-CHOP2 assay of WT-USP1 and Trunc-USP1 with and without USP1 inhibitor ML323.
(§3) Preparation of recombinant USP1 and UAF1 wild type and mutant proteins in SF9 cells and Ub-AMC assays were performed by the method as described in Cohn M A, Kowal P, et al. A UAF1-containing multisubunit protein complex regulates the Fanconi anemia pathway. Molecular cell. 2007; 28(5):786-97. Ub-CHOP2 assays (Life Sensors, Malvern, PA, PR1101) were performed according to manufacturer's instructions. Ub-AMC assays were performed by the methods as described in Cohn M A et al., UAF1 is a subunit of multiple deubiquitinating enzyme complexes. The Journal of biological chemistry. 2009; 284(8):5343-51; Cohn M A, et al. A UAF1-containing multisubunit protein complex regulates the Fanconi anemia pathway. Molecular cell. 2007; 28(5):786-97; Kee Y, et al., WDR20 regulates activity of the USP12 UAF1 deubiquitinating enzyme complex. Journal of Biological Chemistry. 2010; 285(15):11252-7; and Mistry H, Hsieh G, et al. Small-molecule inhibitors of USP1 target ID1 degradation in leukemic cells. Molecular cancer therapeutics. 2013; 12(12):2651-62.

[4] = test system: USP1-Trunc; assay: Ub-CHOP2 deubiquitination assay, Trunc-USP1; type: biochemical
Description: as §2, §3

[5] = target: T2, full-length USP1 / forked DNA (Homo sapiens, UniProt O94782); assay: Electromobility shift assay of USP1 with forked DNA; type: binding; settings: 0-300 nM USP1, 0-1000 nM ML323, forked DNA
T2 construct: purchased Boston Biochem / R&D systems E564
T2 sequence (O94782 1-785): T1 sequence (O94782 1-785)
Description: FIG. 11C. Electromobility shift assay of 0-300 nM of USP1 incubated with 0-1000 nM of ML323 and forked DNA.
Recombinant USP1 and UAF1 proteins from R&D systems (E564, E566) were used for some electromobility shift assays and in vitro deubiquitination assays. Electromobility shift assays were performed by pre-incubating fluorophore (Cy3)-tagged DNA and purified protein in binding buffer (20 mM Hepes (pH 7.6), 0.1M KCl, 5 mM MgCl2, 3% (v/v) glycerol, 0.25 mg/ml BSA, 0.05 mM EDTA, 0.5 mM DTT, 0.01% (v/v) NP-40) for 30 min on ice. Samples were then loaded onto 6% polyacrylamide gels and ran at 65V in 0.5× TBE for 135 min at 4° C. Gels were visualized using the LAS-4000 imaging system (GE Healthcare Life Sciences, Pittsburgh, PA). DNA used for Ub-AMC, Ub-CHOP2 and electromobility shift assay were 40 bp in length and were designed to have minimal potential of secondary structure formation.

[6] = test system: PARP inhibitor resistant UWB1.289 SYR14 cells; assay: Clonogenic assay in PARP inhibitor resistant UWB1.289 SYR14; type: cell-based
Description: FIG. 23A. Quantification of colonies after clonogenic assay of parental BRCA1-deficient UWB1.289 cells and PARP inhibitor resistant UWB1.289 SYR14 cells treated with USP1 inhibitor ML323.
as §1

[7] = test system: PARP inhibitor resistant BRCA1-deficient cells (53BP1 silencing); assay: Sensitivity of PARP inhibitor resistant cells with restored HR (53BP1 silencing); type: cell-based
[8] = target: T3, USP1 (Homo sapiens, UniProt O94782); assay: Western blot of USP1 with and without ML323; type: cell-based
T3 construct: endogenous in cells
Description: FIG. 8F. Western blot of USP1 with and without ML323 treatment. Following inhibition of USP1 deubiquitinating enzyme (DUB) activity, USP1 autocleavage is inhibited, resulting in a more intense top USP1 band. In addition, Ser313 phosphorylation is induced, resulting in a higher MW band in the blot.
Cells were lysed with lysis buffer (300 mM NaCl, 50 mM Tris-Cl, 1 mM EDTA, 0.5% NP-40), lysates resolved on denaturing Nupage (Invitrogen, Carlsbad, CA) polyacrylamide gels and transferred onto nitrocellulose membranes. Membranes were blocked with 5% milk in TBST, and probed with primary and secondary antibodies respectively, then detected with chemiluminescence (Western Lightning, Perkin Elmer, Waltham, MA).

[9] = test system: BRCA1-deficient UWB1.289 cells; assay: Colony assay, ML323 combined with Olaparib in UWB1.289; type: cell-based; settings: 0 nM or 25 nM Olaparib and increasing doses of ML323
Description: FIG. 14. USP1 inhibition is non-epistatic with PARP inhibitors in BRCA1 deficient cells (Top: BRCA1-deficient UWB1.289 cells treated with 0 nM or 25 nM of Olaparib and increasing doses of USP1 inhibitor ML323. Bottom: Representative pictures of UWB1.289 colonies).
as §1

[10] = test system: FANCD2-Ub; settings: cited from earlier work

T3 sequence (Q8TAF3 whole entry partner, one chain of several): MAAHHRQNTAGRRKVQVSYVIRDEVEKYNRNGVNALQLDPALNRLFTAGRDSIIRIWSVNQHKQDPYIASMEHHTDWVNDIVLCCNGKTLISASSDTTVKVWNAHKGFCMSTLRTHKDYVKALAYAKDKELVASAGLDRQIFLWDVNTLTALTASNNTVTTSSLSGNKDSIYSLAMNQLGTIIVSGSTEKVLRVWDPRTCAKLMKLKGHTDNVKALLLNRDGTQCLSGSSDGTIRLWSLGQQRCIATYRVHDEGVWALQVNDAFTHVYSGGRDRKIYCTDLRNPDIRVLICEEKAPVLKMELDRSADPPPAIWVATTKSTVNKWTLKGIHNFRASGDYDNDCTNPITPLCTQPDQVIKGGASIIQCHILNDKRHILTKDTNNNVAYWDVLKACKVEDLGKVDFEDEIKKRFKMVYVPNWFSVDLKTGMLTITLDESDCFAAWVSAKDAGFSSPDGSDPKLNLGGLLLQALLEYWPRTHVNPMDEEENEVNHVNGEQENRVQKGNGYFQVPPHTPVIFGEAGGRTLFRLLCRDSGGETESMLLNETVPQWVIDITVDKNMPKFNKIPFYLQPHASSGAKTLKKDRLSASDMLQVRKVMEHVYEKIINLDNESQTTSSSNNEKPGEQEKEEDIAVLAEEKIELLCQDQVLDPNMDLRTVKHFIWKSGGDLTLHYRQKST

## Cc1cnc(-c2ccccc2C(C)C)nc1NCc1ccc(-n2ccnn2)cc1 [ML323]
[1]
  growth of UWB1.289 cells: reduced growth
[2]
  fork degradation following hydroxyurea treatment: enhanced fork degradation
[3]
  DUB activity of wild-type, full-length USP1: inhibits
[4]
  DUB activity of USP1-Trunc: inhibits
[5]
  DNA binding activity of full-length USP1: does not interfere
[6]
  sensitivity of PARP inhibitor resistant cells resulting from fork stabilization: remained sensitive
[7]
  sensitivity of PARP inhibitor resistant cells resulting from restoration of HR: resistant
[8]
  USP1 Ser313 phosphorylation: induced
  USP1 autocleavage: inhibited
[9]
  interaction of USP1 inhibition with PARP inhibitors in BRCA1 deficient cells: non-epistatic
[10]
  FANCD2 deubiquitination: blocks
  cellular FANCD2-Ub level: accumulation
